# Laboratory results from publication PMC6271099, “Synthesis and Biological Evaluation of Novel 2-Methoxypyridylamino-Substituted Riminophenazine Derivatives as Antituberculosis Agents” (Molecules, 2014).
# Assays:
# M. tuberculosis H37Rv [1] = experiment: Microplate Alamar Blue Assay (MABA), in vitro antituberculosis activity (MIC); type: cell-based; settings: Mycobacterium tuberculosis, 96-well plate
# M. tuberculosis H37Rv [2] = experiment: In vivo acute M. tuberculosis H37Rv infection assay in mice; set-up: species or system Mycobacterium tuberculosis; settings: for logCFU/lung: BALB/c mice infected with M. tuberculosis H37Rv, 20 mg/kg, after 30 days of treatment, mean ± SD, n = 5
# [3] = Cytotoxicity using Vero cells; settings: African green monkey, Vero cells
# [4] = Preliminary multidose in vivo toxicity study in mice; settings: oral 500 mg/kg once daily for 4 days; for Safety in mice (in words): 7-day observation; for Number of animals that survived/Total number of animals: followed by 7-day observation
# Vero cells = experiment: Cytotoxicity using Vero cells
# [5] = as compared to CFZ
# [6] = Preliminary mouse pharmacokinetic study; settings: plasma, po, 20 mg/kg
# [7] = mouse model infected by M. tuberculosis H37Rv
SMILES,MIC (M. tuberculosis H37Rv [1]) [µg/mL],IC50 [3] [µg/mL],melting point [°C],SI (selectivity index IC50/MIC) (Vero cells),other results
"COc1ncccc1Nc1cc2nc3ccccc3n(-c3ccc(Cl)c(Cl)c3)c-2cc1=NC1CC1 [Compound 22, 5-(3,4-Dichlorophenyl)-3-cyclopropylimino-2-(2-methoxy-3-pyridyl)amino-3,5-dihydrophenazine]",0.025,> 64,,,logCFU/lung (M. tuberculosis H37Rv [2]): 8.06 ± 0.13; Efficacy in mouse model (in words) (M. tuberculosis H37Rv [2]; [7]): failed to display efficacy; Safety in mice (in words) [4]: good safety; Number of animals that survived/Total number of animals [4]: 6/6
"COc1ncccc1Nc1cc2nc3ccccc3n(-c3ccc(F)c(F)c3)c-2cc1=NC1CCCCC1 [Compound 18, 5-(3,4-Difluorophenyl)-3-cyclohexylimino-2-(2-methoxy-3-pyridyl)amino-3,5-dihydrophenazine]",0.03,> 64,218 to 219,,
"COc1ncccc1Nc1cc2nc3ccccc3n(-c3ccc(Cl)c(Cl)c3)c-2cc1=NC1CCC(OC)CC1 (centres unmarked) [Compound 25, 5-(3,4-Dichlorophenyl)-3-(4-methoxycyclohexyl)imino-2-(2-methoxy-3-pyridyl)amino-3,5-dihydro-phenazine]",0.059,> 64,215 to 217,,
"COc1ncccc1Nc1cc2nc3ccccc3n(-c3cccc(Cl)c3)c-2cc1=NC1CCCCC1 [Compound 13, 5-(3-Chlorophenyl)-3-cyclohexylimino-2-(2-methoxy-3-pyridyl)amino-3,5-dihydrophenazine]",0.057,53.3,197 to 201,934,
"COc1ncccc1Nc1cc2nc3ccccc3n(-c3ccc(F)c(F)c3)c-2cc1=NC1CC1 [Compound 16, 5-(3,4-Difluorophenyl)-3-cyclopropylimino-2-(2-methoxy-3-pyridyl)amino-3,5-dihydrophenazine]",0.014,25.5,213 to 214,1822,
"COc1ncccc1Nc1cc2nc3ccccc3n(-c3cccc(F)c3)c-2cc1=NC(C)C [Compound 8, 5-(3-Fluorophenyl)-3-isopropylimino-2-(2-methoxy-3-pyridyl)amino-3,5-dihydrophenazine]",0.06,2.65,198 to 199,44,
"COc1ncccc1Nc1cc2nc3ccccc3n(-c3ccc(F)c(F)c3)c-2cc1=NC(C)C [Compound 15, 5-(3,4-Difluorophenyl)-3-isopropylimino-2-(2-methoxy-3-pyridyl)amino-3,5-dihydrophenazine]",0.066,> 64,,,"Discoloration of the ears, internal organs and fat tissues of the mice [5]: less intense; logCFU/lung (M. tuberculosis H37Rv [2]): 4.56 ± 0.38; Efficacy in mouse model (in words) (M. tuberculosis H37Rv [2]; [7]): excellent efficacy; Reduction of bacterial burden in the lungs as compared to the untreated control group (M. tuberculosis H37Rv [2]; mouse model infected by M. tuberculosis H37Rv, lungs): 3.8 logs colony forming units (CFU); Safety in mice (in words) [4]: good safety; Number of animals that survived/Total number of animals [4]: 5/5; AUC(0-t) [6]: 21200 ng·h/mL; Cmax [6]: 1840 ng/mL; Tmax [6]: 2 h; half-life [6]: 13.8 h"
"COc1ncccc1Nc1cc2nc3ccccc3n(-c3ccc(F)c(F)c3)c-2cc1=NC1CCOCC1 [Compound 19, 5-(3,4-Difluorophenyl)-3-(4-tetrahydropyranyl)imino-2-(2-methoxy-3-pyridyl)amino-3,5-dihydro-phenazine]",0.067,> 64,255 to 256,,
"COc1ncccc1Nc1cc2nc3ccccc3n(-c3cccc(Cl)c3)c-2cc1=NC1CC1 [Compound 11, 5-(3-Chlorophenyl)-3-cyclopropylimino-2-(2-methoxy-3-pyridyl)amino-3,5-dihydrophenazine]",0.03,50.9,211 to 214,1696,
"COc1ncccc1Nc1cc2nc3ccccc3n(-c3ccc(Cl)c(Cl)c3)c-2cc1=NC1CCOCC1 [Compound 24, 5-(3,4-Dichlorophenyl)-3-(4-tetrahydropyranyl)imino-2-(2-methoxy-3-pyridyl)amino-3,5-dihydro-phenazine]",0.08,> 64,232 to 233,,
"COc1ncccc1Nc1cc2nc3ccccc3n(-c3cccc(Cl)c3)c-2cc1=NC1CCOCC1 [Compound 14, 5-(3-Chlorophenyl)-3-(4-tetrahydropyranyl)imino-2-(2-methoxy-3-pyridyl)amino-3,5-dihydrophenazine]",0.025,23.4,203 to 206,936,
"COc1ncccc1Nc1cc2nc3ccccc3n(-c3cccc(F)c3)c-2cc1=NC1CCOCC1 [Compound 9, 5-(3-Fluorophenyl)-3-(4-tetrahydropyranyl)imino-2-(2-methoxy-3-pyridyl)amino-3,5-dihydro-phenazine]",0.061,9.21,190 to 191,151,
"COc1ncccc1Nc1cc2nc3ccccc3n(-c3ccc(Cl)c(Cl)c3)c-2cc1=NC(C)C [Compound 21, 5-(3,4-Dichlorophenyl)-3-isopropylimino-2-(2-methoxy-3-pyridyl)amino-3,5-dihydrophenazine]",0.099,> 64,245 to 247,,
"COc1ncccc1Nc1cc2nc3ccccc3n(-c3cccc(Cl)c3)c-2cc1=NC(C)C [Compound 10, 5-(3-Chlorophenyl)-3-isopropylimino-2-(2-methoxy-3-pyridyl)amino-3,5-dihydrophenazine]",0.25,5.1,215 to 217,20,
"COc1ncccc1Nc1cc2nc3ccccc3n(-c3ccc(Cl)c(Cl)c3)c-2cc1=NC1CCC1 [Compound 23, 5-(3,4-Dichlorophenyl)-3-cyclobutylimino-2-(2-methoxy-3-pyridyl)amino-3,5-dihydrophenazine]",0.06,> 64,216 to 219,,
"CC(C)/N=c1\cc2n(-c3ccc(Cl)cc3)c3ccccc3nc-2cc1Nc1ccc(Cl)cc1 [CFZ, Clofazimine, reference compound]",0.12,68.6,,572,logCFU/lung (M. tuberculosis H37Rv [2]): 4.29 ± 0.58; AUC(0-t) [6]: 8220 ng·h/mL; Cmax [6]: 470 ng/mL; Tmax [6]: 2 h; half-life [6]: 27.1 h
"COc1ncccc1Nc1cc2nc3ccccc3n(-c3ccc(F)c(F)c3)c-2cc1=NC1CCC1 [Compound 17, 5-(3,4-Difluorophenyl)-3-cyclobutylimino-2-(2-methoxy-3-pyridyl)amino-3,5-dihydrophenazine]",0.04,> 64,200 to 201,,
"COc1ncccc1Nc1cc2nc3ccccc3n(-c3ccc(F)cc3)c-2c/c1=N\C(C)C [TBI-1004, reference compound]",0.038,> 64,,,
"COc1ncccc1Nc1cc2nc3ccccc3n(-c3cccc(Cl)c3)c-2cc1=NC1CCC1 [Compound 12, 5-(3-Chlorophenyl)-3-cyclobutylimino-2-(2-methoxy-3-pyridyl)amino-3,5-dihydrophenazine]",0.06,> 64,205 to 208,,
"COc1ncccc1Nc1cc2nc3ccccc3n(-c3ccc(F)c(F)c3)c-2cc1=NC1CCC(OC)CC1 (centres unmarked) [Compound 20, 5-(3,4-Difluorophenyl)-3-(4-methoxycyclohexyl)imino-2-(2-methoxy-3-pyridyl)amino-3,5-dihydro-phenazine]",0.056,> 64,214 to 215,,
